Measured values from patent USRE37556E1, “Superoxide radical inhibitor” (Otsuka Pharmaceutical Co., Ltd., priority 1990, dated 2002).
Counter-ions that a name gives are not always drawn.

test system: not given; test: not given; conditions: not given

| SMILES | melting point |
| --- | --- |
| COc1ccc(-c2nc(-c3ccc4c(c3)CCCN4)cs2)cc1OC.Cl | 156 to 158 °C |
| CCOc1ccc(-c2nc(C3=CCN(C)CC3)cs2)cc1OCC | 81.2 to 83.6 °C |
| CCOc1ccc(-c2nc(-c3cccc(CN(C)C)n3)cs2)cc1OCC.Cl.Cl | 195 °C (dec.) |
| CCOc1ccc(-c2nc(-c3ccc(NCCN4CCCCC4)c(C(=O)OC)c3)cs2)cc1OCC.Cl.Cl | 93 to 94 °C |

test system: human neutrophilic leukocytes; test: Inhibition of superoxide radical (O2-) generation in FMLP-stimulated human neutrophilic leukocytes (ferricytochrome C method); format: cell-based; conditions: Homo sapiens, Leukocyte, Table 16; comparative test present compounds vs prior art compounds; NE = not effective
Description: (1) Activity for inhibiting the generation of superoxide radical (O2^−) in human neutrophilic leukocytes
That is, a whole blood obtained from a healthy adult and treated by anticoagulation method was subjected to a dextranhypotonic treatment to obtain leukocyte cells. The leukocyte cells were then subjected to a density gradient ultracentrifugation by Ficoll-Paque to obtain a neutrophilic leukocyte fraction.
O2^− generation was examined by the ferricytochrome C method in accordance with the method of B. N. Cronstein et al. [Journal of Experimental Medicine, vol. […] Each test compound was dissolved in dimethyl sulfoxide (DMSO); the solution was added to neutrophilic leukocytes before the addition of FMLP; then, the neutrophilic leukocytes were pre-incubated at 37° C.

| SMILES | IC50 [nM] |
| --- | --- |
| CCOc1cc(-c2nc(-c3cc(C(=O)O)ccc3O)cs2)ccc1OC [compound 104, 4-(3-Carboxy-6-hydroxyphenyl)-2-(3-ethoxy-4-methoxy-phenyl)thiazole] | 34 |
| COc1ccc(-c2nc(-c3ccc(O)c(C(=O)O)c3)cs2)cc1OC [compound 105, 4-(3-Carboxy-4-hydroxyphenyl)-2-(3,4-dimethoxyphenyl)thiazole, reference compound] | 1000 |
| CCOc1ccc(-c2nc(-c3cc(O)cc(C(=O)O)c3)cs2)cc1OCC [compound 110, 4-(3-Carboxy-5-hydroxyphenyl)-2-(3,4-diethoxyphenyl)thiazole, reference compound] | 660 |
| CCCCOc1ccc(-c2nc(-c3ccc(O)c(C(=O)O)c3)cs2)cc1OCCCC [compound 111, 4-(3-Carboxy-4-hydroxyphenyl)-2-(3,4-dibutoxyphenyl)thiazole, reference compound] | 8300 |
| CCOc1ccc(-c2nc(-c3cc(C(=O)O)ccc3OC)cs2)cc1OCC [compound 112, 4-(3-Carboxy-6-methoxyphenyl)-2-(3,4-diethoxyphenyl)thiazole, reference compound] | 8700 |

same assay, conditions: Homo sapiens, Leukocyte, pH 7.4, Table 15; O2- generation, 3x10^-7 M FMLP, cytochalasin B, 37° C., pH 7.4

| SMILES | IC50 [nM] |
| --- | --- |
| CCOc1ccc(-c2nc(-c3cc(C(=O)OC)cc([N+](=O)[O-])c3O)cs2)cc1OCC [compound 101, 4-(3-Methoxycarbonyl-5-nitro-6-hydroxyphenyl)-2-(3,4-diethoxyphenyl)thiazole] | 10 |
| CCOc1ccc(-c2nc(-c3cc(C(=O)OC)cc(N)c3O)cs2)cc1OCC [compound 102, 4-(3-Methoxycarbonyl-5-amino-6-hydroxyphenyl)-2-(3,4-diethoxyphenyl)thiazole] | 69 |
| C=CCc1cc(C(=O)O)cc(-c2csc(-c3ccc(OCC)c(OCC)c3)n2)c1O [compound 103, 4-(3-Carboxy-5-allyl-6-hydroxyphenyl)-2-(3,4-diethoxy-phenyl)thiazole] | 94 |
| CCOc1cc(-c2nc(-c3cc(C(=O)O)ccc3O)cs2)ccc1OC [compound 104, 4-(3-Carboxy-6-hydroxyphenyl)-2-(3-ethoxy-4-methoxy-phenyl)thiazole] | 34 |
| CCOc1ccc(-c2nc(-c3cc(C(=O)O)cc(N)c3O)cs2)cc1OCC [compound 113, 4-(2-Hydroxy-3-amino-5-carboxyphenyl)-2-(3,4-diethoxy-phenyl)thiazole hydrochloride] | 25 |
| CCCc1cc(C(=O)O)cc(-c2csc(-c3ccc(OCC)c(OCC)c3)n2)c1O [compound 114, 4-(2-Hydroxy-3-propyl-5-carboxyphenyl)-2-(3,4-diethoxy-phenyl)thiazole] | 100 |
| CCOc1ccc(-c2nc(-c3cccc(C(=O)O)n3)cs2)cc1OCC [compound 115, 4-(6-Carboxy-2-pyridyl)-2-(3,4-diethoxyphenyl)-thiazole] | 80 |
| CCOc1ccc(-c2nc(-c3ccccc3)cs2)cc1OCC [compound 116, 2-(3,4-Diethoxyphenyl)-4-phenylthiazole] | 370 |
| CCOc1ccc(-c2nc(-c3ccc(NCCN4CCCCC4)c(C(=O)OC)c3)cs2)cc1OCC [compound 117, 2-(3,4-Diethoxyphenyl)-4-{3-methoxycarbonyl-4-[2-(1-piperidinyl)ethylamino]phenyl}thiazole dihydrochloride] | 460 |
| CCOc1ccc(-c2nc(-c3ccc(O)c(C(=O)OCCN(C)C)c3)cs2)cc1OCC [compound 118, 2-(3,4-Diethoxyphenyl)-4-[4-hydroxy-3-(2-dimethylaminoethoxycarbonyl)phenyl]thiazole trihydrochloride] | 560 |
| CCOc1ccc(-c2nc(-c3ccc(C(=O)O)[nH]3)cs2)cc1OCC [compound 119, 2-(3,4-Diethoxyphenyl)-4-(2-carboxy-5-pyrrolyl)-thiazole] | 24 |
| CCCCCCCCCOC(=O)c1cc(-c2csc(-c3ccc(OCC)c(OCC)c3)n2)ccc1O [compound 120, 2-(3,4-Diethoxyphenyl)-4-(4-hydroxy-3-n-nonyloxy-carbonylphenyl)thiazole] | 490 |
| CCOc1ccc(-c2nc(-c3ccc(C(=O)OC)o3)cs2)cc1OCC [compound 121, 2-(3,4-Diethoxyphenyl)-4-(2-methoxycarbonyl-5-furyl)thiazole] | 38 |
| CCOc1ccc(-c2nc(-c3ccc(C(=O)O)o3)cs2)cc1OCC [compound 122, 2-(3,4-Diethoxyphenyl)-4-(2-carboxy-5-furyl)-thiazole] | 19 |
| CCOc1ccc(-c2nc(-c3cccc(C(=O)N(C)C)n3)cs2)cc1OCC [compound 123, 2-(3,4-Diethoxyphenyl)-4-(2-dimethylaminocarbonyl-6-pyridyl)thiazole] | 380 |
| CCOc1ccc(-c2nc(-c3cc(CC)c(O)c(C(=O)O)c3)cs2)cc1OCC [compound 126, 2-(3,4-Diethoxyphenyl)-4-(3-carboxy-4-hydroxy-5-ethylphenyl)thiazole] | 14 |
| CCOc1ccc(-c2nc(-c3ccc(C(=O)O)s3)cs2)cc1OCC [compound 129, 2-(3,4-Diethoxyphenyl)-4-(2-carboxy-5-thienyl)-thiazole] | 82 |
| CCOc1ccc(-c2nc(-c3cc(C(=O)O)c4oc(C)cc4c3)cs2)cc1OCC [compound 130, 2-(3,4-Diethoxyphenyl)-4-(2-methyl-7-carboxy-5-benzofuryl)thiazole] | 240 |

| SMILES | IC50 [nM] |
| --- | --- |
| CCOC(=O)c1csc(-c2csc(-c3ccc(OCC)c(OCC)c3)n2)n1 [compound 131, 2-(3,4-Diethoxyphenyl)-4-(4-ethoxycarbonyl-2-thiazolyl)thiazole] | 190 |
| CCOc1ccc(-c2nc(-c3nc(C(=O)O)cs3)cs2)cc1OCC [compound 132, 2-(3,4-Diethoxyphenyl)-4-(4-carboxy-2-thiazolyl)-thiazole] | 50 |
| CCOc1ccc(-c2nc(-c3ccc(O)c(CO)c3)cs2)cc1OCC [compound 133, 2-(3,4-Diethoxyphenyl)-4-(4-hydroxy-3-hydroxymethylphenyl)thiazole] | 9.2 |
| CCOc1ccc(-c2nc(-c3ccc(OCC)c(C(=O)O)c3)cs2)cc1OCC [compound 134, 2-(3,4-Diethoxyphenyl)-4-(4-ethoxy-3-carboxyphenyl)thiazole] | 130 |
| CCOc1ccc(-c2nc(-c3cncc(C(=O)O)c3)cs2)cc1OCC [compound 135, 2-(3,4-Diethoxyphenyl)-4-(3-carboxy-5-pyridyl)-thiazole hydrochloride] | 35 |
| CCCCOC(=O)c1cc(-c2csc(-c3ccc(OCC)c(OCC)c3)n2)ccc1OCCCC [compound 136, 2-(3,4-Diethoxyphenyl)-4-(3-n-butoxycarbonyl-4-n-butoxyphenyl)thiazole] | 130 |
| CCCCOc1ccc(-c2csc(-c3ccc(OCC)c(OCC)c3)n2)cc1C(=O)O [compound 137, 2-(3,4-Diethoxyphenyl)-4-(3-carboxy-4-n-butoxyphenyl)thiazole] | 110 |
| CCCOc1ccc(-c2csc(-c3ccc(OCC)c(OCC)c3)n2)cc1C(=O)O [compound 138, 2-(3,4-Diethoxyphenyl)-4-(3-carboxy-4-n-propoxyphenyl)thiazole] | 140 |
| CCOc1ccc(-c2nc(-c3cc4c(c(C(=O)O)c3)OC(C)(C)C4)cs2)cc1OCC [compound 139, 2-(3,4-Diethoxyphenyl)-4-(2,2-dimethyl-7-carboxy-2,3-dihydrobenzofuran-5-yl)thiazole] | 100 |
| CC=Cc1cc(-c2csc(-c3ccc(OCC)c(OCC)c3)n2)cc(C(=O)O)c1O [compound 140, 2-(3,4-Diethoxyphenyl)-4-[3-carboxy-4-hydroxy-5-(1-propenyl)phenyl]thiazole] | 4.7 |
| CCOc1ccc(-c2nc(-c3cnc(C)c(C(=O)O)c3)cs2)cc1OCC [compound 141, 2-(3,4-Diethoxyphenyl)-4-(2-methyl-3-carboxy-5-pyridyl)thiazole] | 94 |
| CCOc1ccc(-c2nc(-c3cc(C=O)c(O)c(C(=O)O)c3)cs2)cc1OCC [compound 142, 2-(3,4-Diethoxyphenyl)-4-(3-carboxy-4-hydroxy-5-formylphenyl)thiazole] | 120 |
| CCOc1ccc(-c2nc(-c3ccc(C(=O)O)cn3)cs2)cc1OCC [compound 143, 2-(3,4-Diethoxyphenyl)-4-(3-carboxy-6-pyridyl)-thiazole] | 270 |
| CCOc1ccc(-c2nc(-c3ccc(C(=O)O)nc3)cs2)cc1OCC [compound 144, 2-(3,4-Diethoxyphenyl)-4-(2-carboxy-5-pyridyl)-thiazole] | 35 |
| CCOc1ccc(-c2nc(-c3cc(Br)c(O)c(C(=O)O)c3)cs2)cc1OCC [compound 145, 2-(3,4-Diethoxyphenyl)-4-(3-carboxy-4-hydroxy-5-bromophenyl)thiazole] | 110 |
| CCOc1ccc(-c2nc(-c3ccc(N(C)C)c(C(=O)O)c3)cs2)cc1OCC [compound 146, 2-(3,4-Diethoxyphenyl)-4-(3-carboxy-4-dimethylaminophenyl)thiazole] | 110 |
| C=Cc1cc(-c2csc(-c3ccc(OCC)c(OCC)c3)n2)cc(C(=O)O)c1O [compound 147, 2-(3,4-Diethoxyphenyl)-4-(3-carboxy-4-hydroxy-5-vinylphenyl)thiazole] | 10 |

same assay, conditions: Table 15; O2- generation, 3x10^-7 M FMLP, cytochalasin B, 37° C., pH 7.4

| SMILES | IC50 [nM] |
| --- | --- |
| CCOc1ccc(-c2nc(-c3ccc(OC)c(C(=O)O)c3)cs2)cc1OCC [compound 125] | 190 |
| CCOc1ccc(-c2nc(-c3cccc(CO)n3)cs2)cc1OCC [compound 127] | 20 |
| CCOc1ccc(-c2nc(-c3cccc(C(=O)N4CCN(C)CC4)n3)cs2)cc1OCC [compound 128] | 580 |
